Results from patent EP0107890B1, “Mammalian PGRF” (THE SALK INSTITUTE FOR BIOLOGICAL STUDIES, priority 1982, dated 1986).
Where no end group is shown, it is not given here.

How the values were obtained:
normal male rats = test: in vivo secretion of pituitary growth hormone after injection into anesthetized rats; details: injected into rats
Source text: In addition to the in vitro tests for secretion of growth hormone, in vivo experiments were also run by injecting the synthetic peptide into normal male rats about 200 g. body weight, anesthetized with pentobarbital.

pituitary cells = test: in vitro growth hormone release assay in rat pituitary cell cultures (immunoreactive GH by radioimmunoassay); type: cell-based
Experimental: To determine the effectiveness of the peptides to promote the release of growth hormone, in vitro assays are carried out using synthetic PGRF(1-40) of Example II in side-by-side comparison with equimolar concentrations of the extracted and purified native PGRF (1-40) and of a GRF Reference Standard having a known effectiveness to promote the release of growth hormone from pituitary cells. The GRF Reference standard is described and defined in Brazeau, et al., Endocrinology, Vol. 110, A538(1982) and is an amount of a preparation of rat hypothalamic origin that produces a half-maximal response in terms of GH release in a pituitary cell monolayer bioassay. Cultures are used which include cells of rat pituitary glands removed some four to five days previously. Both cultures of a defined standard medium and cultures which are considered optimal for the secretion of growth hormone are used for the comparative testing, in the general manner described in Brazeau, et al. Regulatory Peptides, 1, 255, 1981. Incubation with the substance to be tested is carried out for 3 to 4 hours, and aliquots of the culture medium are removed and processed to measure their contents in immunoreactive GH(ir GH) by a well-characterized radioimmunoassay.

Substance: PGRF(1-40) (YADAIFTNSYRKVLGQLSARKLLQDIMSRQQGESNQERGA-OH; UniProt P01286 32-71, looked up, fragment) [Example II]
- GH-releasing activity in vivo (normal male rats): powerful stimulator of the secretion of pituitary growth hormone
- ED50 (pituitary cells; GH release from rat pituitary cell cultures, incubation 3 to 4 hours): about 113 picograms
- biological activity compared with the native peptide (pituitary cells; in equimolar ratios, versus extracted and purified native PGRF (1-40)): full biological activity of the native peptide
